Results: patent US20200087248A1, “Fluoroallylamine Derivative And Use Thereof” (SICHUAN KELUN-BIOTECH BIOPHARMACEUTICAL CO., LTD., priority 2017, published 2020)
Counter-ions that a name gives are not always drawn.

Experiments:
[1] = target: T1, hERG (Homo sapiens, UniProt Q12809); assay: hERG fluorescence polarization inhibition experiment; settings: hERG cell membrane, 25° C. 2 hours, read-out: hERG (IC50 range, competitive binding vs tracer)
T1 construct: purchased ThermoFisher; host or cells: hERG cell membrane supplied with the kit
Method: hERG (Ether-a-go-go-related Gene Potassium Channel) Inhibition Experiment
Reagent: Predictor™ hERG Fluorescence Polarization Assay Kit, Manufacturer: ThermoFisher
The above test kit was used to evaluate the potential of the compound for inducing heart QT prolongation. According to the method as indicated in the specification of the test kit, the test compound, the positive control (E4031) and negative control (Experimental buffer solution) in the kit were added to a microwell plate containing hERG cell membrane, and then a tracer having high affinity to hERG was added. The microwell plate was then incubated at 25° C. for 2 hours, a BMG PHAREStar polyfunctional enzyme marker was used to test the variations in the fluorescent polarization value. By calculating the percent inhibition rates (%) at different concentrations, the range of the half inhibition concentration (IC50) was determined:
Percent inhibition rate (%)=(1-(mP of the test compound-mP of 30 μM E4031)/(mP of experimental buffer solution-mP of 30 μM E4031))*100.

[2] = target: T2, VAP-1 in abdominal fat of mice (Mus musculus, UniProt O70423); assay: Inhibition of the enzymatic activity of VAP-1 ex-vivo, abdominal fat after oral dosing; type: in vivo, BALBc mice; settings: abdominal fat collected after six hours; for inhibition at 0.5 mg/kg / inhibition at 2 mg/kg: mouse, read-out: Inhibition rate (%) against the enzymatic activity of VAP-1 (ex-vivo); for inhibition at 0.5 mg/kg: 0.5 mg/kg oral; for Inhibition rate (%) against the enzymatic activity of VAP-1 (ex-vivo) / inhibition at 2 mg/kg: 2 mg/kg oral
T2 construct: abdominal fat was collected and homogenized; from tissue; host or cells: abdominal fat of BALBc mice (homogenate supernatant)
T2 sequence (O70423 1-765): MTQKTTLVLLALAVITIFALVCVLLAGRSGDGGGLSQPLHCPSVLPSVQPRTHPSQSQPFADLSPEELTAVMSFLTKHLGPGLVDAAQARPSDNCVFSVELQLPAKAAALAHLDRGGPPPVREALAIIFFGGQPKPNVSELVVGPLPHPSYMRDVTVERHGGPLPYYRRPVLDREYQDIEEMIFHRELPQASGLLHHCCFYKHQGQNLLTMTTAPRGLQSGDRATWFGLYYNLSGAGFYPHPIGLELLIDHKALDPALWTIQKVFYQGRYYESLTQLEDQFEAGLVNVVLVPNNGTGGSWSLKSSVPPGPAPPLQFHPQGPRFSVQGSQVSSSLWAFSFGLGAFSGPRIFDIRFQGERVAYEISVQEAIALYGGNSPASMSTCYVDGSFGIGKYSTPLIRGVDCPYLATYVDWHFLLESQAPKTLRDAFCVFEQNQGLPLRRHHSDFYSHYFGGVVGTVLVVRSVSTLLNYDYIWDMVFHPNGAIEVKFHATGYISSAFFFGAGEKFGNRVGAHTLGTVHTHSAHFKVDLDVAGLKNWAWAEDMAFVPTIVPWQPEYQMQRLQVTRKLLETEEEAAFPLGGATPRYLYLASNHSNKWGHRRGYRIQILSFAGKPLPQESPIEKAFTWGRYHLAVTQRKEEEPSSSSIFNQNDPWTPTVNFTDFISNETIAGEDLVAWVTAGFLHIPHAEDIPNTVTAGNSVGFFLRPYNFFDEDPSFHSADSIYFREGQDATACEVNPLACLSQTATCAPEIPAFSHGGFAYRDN
Method: Inhibition Experiment Against the Enzymatic Activity (ex-vivo)
Tissue homogenate buffer solution (20 mM HEPES, pH 7.2, 1 mM EDTA, 250 mM sucrose, PMSF 0.2 mM)
(§1) Reaction buffer solution: 50 mM PBS, pH 7.4
(§2) Test kit: Amplex® Red Monoamine Oxidase Assay, Manufacturer: ThermoFisher
BALBc mice were administrated orally with different doses of the test compound, and the vehicle group was used as the control group. After six hours, abdominal fat was collected and homogenized at 1:20 (w/v) with the pre-cooled homogenate buffer solution, and thereafter, the homogenate was centrifuged at 10,000 g and 4° C. or 10 minutes, the supernatant was collected and stored at -80° C. for further use.
A test sample was diluted with the reaction buffer solution and successively added with the inhibition solution A: 1 μM Clorgyline+1 μM pargylin, to inhibit the activities of MAO-A and MAO-B, and the inhibition solution B: 1 μM Clorgyline+1 μM Pargylin+1 μM Mofegiline as the blank control, and after being incubated at room temperature for 20 min, 500 μM benzylamine hydrochloride, 1 U/mL HRP and 200 μM Amplex Red reagent were added to start the reaction. By referring to the method in “Experiment of inhibiting the enzymatic activity of VAP-1”, relative activity of each dose group was calculated, wherein the ratio of the fluorescent signal to reaction time in the linear range is the reaction rate, and the vehicle group is the positive control, thereby to study the inhibition of the compound against the enzymatic activity of VAP-1 in abdominal fat of mice.

[3] = target: T3, VAP-1 (Homo sapiens, UniProt Q16853); assay: Inhibition of the enzymatic activity of VAP-1 in vitro (Amplex Red); type: biochemical; settings: VAP-1 protein about 20 nM, 10 min pre-incubation, benzylamine substrate; read-out: IC50, inhibition against the enzymatic activity of VAP-1
T3 construct: purchased R&D Systems
T3 sequence (Q16853 1-763): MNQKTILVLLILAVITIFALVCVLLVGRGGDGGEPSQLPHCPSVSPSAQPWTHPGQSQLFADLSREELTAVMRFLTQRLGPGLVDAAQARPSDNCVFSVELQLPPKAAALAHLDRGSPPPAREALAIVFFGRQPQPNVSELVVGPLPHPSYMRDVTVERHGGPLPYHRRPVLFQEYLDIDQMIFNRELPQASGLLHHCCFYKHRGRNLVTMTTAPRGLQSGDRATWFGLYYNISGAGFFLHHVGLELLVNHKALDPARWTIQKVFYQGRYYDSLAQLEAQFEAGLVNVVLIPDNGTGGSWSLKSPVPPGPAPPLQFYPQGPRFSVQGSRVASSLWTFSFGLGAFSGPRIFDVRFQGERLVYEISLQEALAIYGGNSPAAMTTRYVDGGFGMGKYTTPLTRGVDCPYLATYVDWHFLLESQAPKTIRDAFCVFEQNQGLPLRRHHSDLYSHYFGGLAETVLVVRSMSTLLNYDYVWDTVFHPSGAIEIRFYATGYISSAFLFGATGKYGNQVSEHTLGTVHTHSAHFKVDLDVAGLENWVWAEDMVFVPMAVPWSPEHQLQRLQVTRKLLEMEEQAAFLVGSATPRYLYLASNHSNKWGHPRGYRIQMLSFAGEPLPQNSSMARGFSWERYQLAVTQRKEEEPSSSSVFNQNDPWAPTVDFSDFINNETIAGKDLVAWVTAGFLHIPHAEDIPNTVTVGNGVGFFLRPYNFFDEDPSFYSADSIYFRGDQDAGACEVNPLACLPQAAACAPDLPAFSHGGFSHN
Method: Inhibition Experiment Against the Enzymatic Activity of VAP-1(Vascular Adhesion Protein 1) in vitro
as §2, §1
Enzyme: VAP-1, Manufacturer: R&D Systems
VAP-1 protein (about 20 nM) and different concentrations of the test compound were pre-incubated at room temperature for 10 minutes, followed by an addition of […] benzylamine hydrochloride, 1 U/mL HRP and 200 μM Amplex Red reagent according to the specification of the test kit to start the reaction. The reaction plate was placed in the enzyme marker, and in kinetic mode, fluorescence signals were measured at Ex/Em=540/590 nm. The relative inhibition activity of each concentration group was calculated, wherein the ratio (slope) of fluorescence signal to reaction time in the linear range is the reaction rate, the vehicle group (DMSO) is the negative control, and the reaction buffer solution group (without enzymes and the compounds) is the blank control. The half inhibition concentration (IC50) of the compound was calculated according to four-parameter model fitting curve.

T1 sequence (Q12809 whole entry): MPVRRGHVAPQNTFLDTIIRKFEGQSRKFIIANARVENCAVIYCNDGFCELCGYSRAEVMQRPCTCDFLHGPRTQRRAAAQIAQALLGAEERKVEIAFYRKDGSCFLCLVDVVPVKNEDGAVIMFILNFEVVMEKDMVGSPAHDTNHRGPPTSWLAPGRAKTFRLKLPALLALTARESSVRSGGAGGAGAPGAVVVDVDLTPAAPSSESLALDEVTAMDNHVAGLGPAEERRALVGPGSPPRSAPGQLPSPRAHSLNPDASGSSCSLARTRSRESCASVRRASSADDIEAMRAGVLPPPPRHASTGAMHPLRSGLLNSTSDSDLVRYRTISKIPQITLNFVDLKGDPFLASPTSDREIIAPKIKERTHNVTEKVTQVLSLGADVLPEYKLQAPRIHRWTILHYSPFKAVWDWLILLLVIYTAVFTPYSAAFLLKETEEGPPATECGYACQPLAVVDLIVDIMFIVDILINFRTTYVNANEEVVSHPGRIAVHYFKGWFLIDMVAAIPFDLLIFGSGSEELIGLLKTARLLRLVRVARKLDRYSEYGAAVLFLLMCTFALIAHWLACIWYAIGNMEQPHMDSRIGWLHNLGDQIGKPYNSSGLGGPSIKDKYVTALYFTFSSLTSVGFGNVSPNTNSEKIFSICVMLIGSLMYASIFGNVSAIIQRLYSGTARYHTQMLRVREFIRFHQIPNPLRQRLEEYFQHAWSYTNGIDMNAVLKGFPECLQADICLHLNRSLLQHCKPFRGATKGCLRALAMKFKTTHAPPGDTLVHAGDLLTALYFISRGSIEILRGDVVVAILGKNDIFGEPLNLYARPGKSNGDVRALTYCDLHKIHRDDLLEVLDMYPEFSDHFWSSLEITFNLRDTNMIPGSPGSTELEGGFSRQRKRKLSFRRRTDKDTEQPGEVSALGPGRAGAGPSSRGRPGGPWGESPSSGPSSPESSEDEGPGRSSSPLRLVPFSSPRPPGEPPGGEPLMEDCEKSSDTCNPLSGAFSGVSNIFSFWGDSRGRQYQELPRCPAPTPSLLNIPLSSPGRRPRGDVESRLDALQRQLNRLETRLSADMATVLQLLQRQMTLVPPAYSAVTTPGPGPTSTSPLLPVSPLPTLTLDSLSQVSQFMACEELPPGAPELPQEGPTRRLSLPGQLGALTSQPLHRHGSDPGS

SMILES	IC50 [1] [nM]	inhibition at 0.5 mg/kg [2] [%]	IC50 [3] [nM]	Inhibition rate (%) against the enzymatic activity of VAP-1 (ex-vivo) [2]	inhibition at 2 mg/kg [2] [%]
NC/C(=C/F)COc1ccc(C(=O)Nc2ccccc2)cc1 [TM1-Z, (Z)-N-phenyl-4-((2-aminomethyl-3-fluoroallyl)oxy)-benzamide trifluoroacetate]	> 10000	93.3 ± 5.4	0.7 ± 0.1	–	–
NCC(=CF)COc1ccc2c(c1)CCNC2=O.O=C(O)C(F)(F)F [TM26, 6-((2-aminomethyl-3-fluoroallyl)oxy)-3,4-dihydroisoquinolin-1(2H)-one trifluoroacetate]	> 30000	–	5.8 ± 1	completely inhibited	112 ± 7.1
NCC(=CF)COc1ccc2c(c1)CN(Cc1ccc(Cl)cc1)C2=O [TM33, 5-((2-aminomethyl-3-fluoroallyl)oxy)-2-(4-chlorobenzyl)isoindolin-1-one]	–	–	3.3 ± 0.2	completely inhibited	105 ± 9.1
NC/C(=C/F)COc1ccc(-c2ncccn2)cc1 [TM39-Z, (Z)-2-(4-(2-pyrimidyl)phenoxymethyl)-3-fluoroallylamine trifluoroacetate]	> 10000	93.2 ± 3.9	0.7 ± 0.1	–	–
NCC(=CF)COc1ccc(-c2nc3ccc(Cl)cc3s2)cc1 [TM41, 2-(4-(6-chloro-benzothiazol-2-yl)phenoxymethyl)-3-fluoroallylamine trifluoroacetate]	–	–	4.8 ± 0.7	–	96.1 ± 17.4
NCC(=CF)COc1ccc(-c2nc3ccccc3[nH]2)cc1.O=C(O)C(F)(F)F [TM42, 2-(4-(1H-benzoimidazol-2-yl)phenoxymethyl)-3-fluoroallylamine trifluoroacetate]	> 10000	–	1.6 ± 0.2	completely inhibited	106 ± 8.4
NCC(=CF)COc1ccc(C(=O)N2CCC(c3ccccc3)CC2)cc1 [TM44, (4-((2-aminomethyl-3-fluoroallyl)oxy)phenyl)-(4-phenylpiperidin-1-yl)methanone trifluoroacetate]	> 10000	–	3.4 ± 0.4	–	95.8 ± 6.2
NCC(=CF)COc1ccc(C(=O)N2CCc3ccccc3C2)cc1 [TM45, (4-((2-aminomethyl-3-fluoroallyl)oxy)phenyl)-(3,4-dihydroisoquinolin-2(1H)-yl)methanone trifluoroacetate]	> 10000	–	0.9 ± 0.1	–	91.9 ± 6.4
NCC(=CF)COc1ccc(C(=O)Nc2ccc(F)cc2)cc1 [TM61, N-(4-fluorophenyl)-4-((2-aminomethyl-3-fluoroallyl)oxy)-benzamide trifluoroacetate]	> 10000	–	0.5	–	99.7 ± 8.7
NC/C(=C/F)COc1ccc(C(=O)N[C@H]2CCCc3ccccc32)cc1 [TM63-Z, (Z)-(S)-N-(1,2,3,4-tetrahydro-1-naphthyl)-4-((2-aminomethyl-3-fluoroallyl)oxy)-benzamide trifluoroacetate]	> 10000	–	4.4 ± 0.8	–	–
Cc1ccc(N(C)C(=O)c2ccc(OCC(=CF)CN)cc2)cc1 [TM67, N-methyl-N-p-methylphenyl-4-((2-aminomethyl-3-fluoroallyl)oxy)-benzamide trifluoroacetate]	> 30000	–	11.5 ± 1.3	–	–
Cc1csc(-c2ccc(OCC(=CF)CN)cc2)n1 [TM70, 2-(4-(4-methylthiazolyl-2-phenoxy)methyl)-3-fluoroallylamine trifluoroacetate]	> 30000	–	0.2	–	–
